# Laboratory results from PubChem BioAssay (NCI).
# Where “and” joins values, the source holds several entries; their conditions need not be identical. Equal values may be shown once.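 Interpolation was linear, between the two tested concentrations surrounding the appropriate level; five concentrations were tested over 48 hours in 96-well plates. GI50 is the concentration that inhibits growth by half. TGI denotes the concentration required for complete inhibition of growth.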
# How the values were obtained:
# Assay in all cases: NCI anticancer screen, dose series, 48 h
# K-562 leukemia = test system: K-562 leukemia
# NCI-H23 lung = test system: NCI-H23 lung
# HCC-2998 colon = test system: HCC-2998 colon
# ACHN renal = test system: ACHN renal
# SK-MEL-5 melanoma = test system: SK-MEL-5 melanoma
# LOX IMVI melanoma = test system: LOX IMVI melanoma
# MDA-MB-231 breast = test system: MDA-MB-231 breast
# U251 CNS = test system: U251 CNS
# 786-0 renal = test system: 786-0 renal
# SK-MEL-28 melanoma = test system: SK-MEL-28 melanoma
Structure (SMILES),GI50 (K-562 leukemia),TGI (K-562 leukemia),GI50 (NCI-H23 lung),TGI (NCI-H23 lung),GI50 (HCC-2998 colon),TGI (HCC-2998 colon),GI50 (ACHN renal),TGI (ACHN renal),GI50 (SK-MEL-5 melanoma),TGI (SK-MEL-5 melanoma),GI50 (LOX IMVI melanoma),TGI (LOX IMVI melanoma),GI50 (MDA-MB-231 breast),TGI (MDA-MB-231 breast),GI50 (U251 CNS),TGI (U251 CNS),GI50 (786-0 renal),TGI (786-0 renal),GI50 (SK-MEL-28 melanoma),TGI (SK-MEL-28 melanoma)
COc1ccc2cc(-c3cnc4nonc4n3)ccc2c1,0.468 µM,> 100 µM,4.49 µM,> 100 µM,2.32 µM,> 100 µM,4.33 µM,> 100 µM,1.24 µM,8.5 µM,1.88 µM,> 100 µM,14.1 µM,> 100 µM,3.21 µM,37.3 µM,4.17 µM,> 100 µM,> 100 µM,> 100 µM
CCC1=C(c2ccc(OC)cc2)C(C)(C)Oc2c1ccc(O)c2CN1CCCC1,0.759 µM,3.1 µM,3.02 µM,21.6 µM,1.44 µM,2.88 µM,3.6 µM,> 100 µM,1.3 µM,2.57 µM,1.46 µM,2.8 µM,2.39 µM,4.97 µM,1.48 µM,3.04 µM,4.02 µM,20.2 µM,1.7 µM,3.32 µM
O=S(=O)(N=C1C(Cl)=C(Cl)C(=NS(=O)(=O)c2ccccc2)C(Cl)=C1Cl)c1ccccc1,21.4 µM,> 100 µM,25.6 µM,> 100 µM,26.6 µM,64.6 µM,20.5 µM,65 µM,13.9 µM,36.5 µM,15.4 µM,43.1 µM,21.9 µM,> 100 µM,19.3 µM,54 µM,22.7 µM,44.1 µM,20.6 µM,78.1 µM
C[C@@H]1C[C@H](N)C[C@H](c2ccncc2NC(=O)c2ccc(F)c(-c3c(F)cccc3F)n2)C1,4.1 µM and 4.22 µM,21.3 µM and > 10 µM,–,–,3.42 µM and 4.16 µM,18 µM and > 10 µM,12.1 µM and > 10 µM,24.5 µM and > 10 µM,13 µM and 1.58 µM,26.2 µM and 5.01 µM,10.6 µM and > 10 µM,23.3 µM and > 10 µM,12.8 µM and 4.01 µM,26.8 µM and > 10 µM,12 µM and > 10 µM,24.7 µM and > 10 µM,12.2 µM and > 10 µM,25.6 µM and > 10 µM,10.4 µM and > 10 µM,22.6 µM and > 10 µM
COc1cc(-n2ccnc2-c2ccc3ccccc3c2)cc(OC)c1OC,< 0.0191 µM,> 100 µM,0.223 µM,13.4 µM,< 0.0318 µM,0.199 µM,2.6 µM,49 µM,< 0.0198 µM,12.3 µM,1.08 µM,> 47.6 µM,0.571 µM,44.1 µM,0.0907 µM,21.5 µM,0.161 µM,19 µM,0.688 µM,38.3 µM
Cc1ccc(OCC2CO2)c(Br)c1 (stereo not drawn),–,71.6 µM,–,76.7 µM,–,34.8 µM,–,21.2 µM,–,60.5 µM,–,30.4 µM,–,58 µM,–,32.6 µM,–,62 µM,–,85.1 µM
